What was measured:
[1] = tested on: E. coli in the urinary tract; experiment: doctor-run trials of mannose dosages in urinary tract infections; type: in vivo; conditions: 2 g three times a day for acute infections; maintenance 1 g one to two times per day
Description: Because it is difficult for many people to remember a medication that must be taken this often, it is herein disclosed to change this model, as disclosed in the table in FIG. 2. For acute infections, the method is to give a 2-gram (1 teaspoon) dose of mannose three times a day with meals. The maintenance dosage is one-half teaspoon (1 gram) one to two times per day. Children's dosages are half of the adult dosage. For women who experience UTIs after sexual relations, one teaspoon is used an hour prior to intimate relations and an additional one teaspoon immediately following. This regimen provides a quantity of mannose sufficient to remove a majority of E. coli in the urinary tract, while improving the ease of use and compliance.

[2] = tested on: E. coli; conditions: cited from earlier work

Compound	effectiveness of the dosages in doctor-run trials [1]	effectiveness in binding to E. coli and inhibiting its attachment, relative to fructose ([2]; compared with fructose)	binding to E. coli ([2]; fructose contained in cranberry juice)
O=C[C@@H](O)[C@@H](O)[C@H](O)[C@H](O)CO [D-mannose]	effective	ten times more effectively	–
O=C(CO)[C@@H](O)[C@H](O)[C@H](O)CO [fructose, reference compound]	–	–	can also bind to E. coli

Reference: patent US20040147459A1, “Method and composition for maintaining urinary tract health in the face of infections” (priority 2002, published 2004)
